Results on one compound are retold here after paper PMC5390315 (Scientific Reports, 2017).

The structures appear in SMILES notation. Like-named read-outs stand apart in the source and are kept apart here.

For series [1], the system named is PBL stimulated with PHA. As to the kind of experiment: Cytotoxicity in PHA-stimulated peripheral blood lymphocytes. The series is classed as cell-based. The note with it: Homo sapiens, Lymphocyte, 72 h, MTT, mean ± SEM, read-out: IC50 PBLPHA. The procedure:
(§1) Peripheral blood lymphocytes (PBL) from healthy donors were obtained from human peripheral blood (leucocyte rich plasma- buffy coats) from healthy volunteers using the Lymphoprep (Fresenius KABI Norge AS) gradient density centrifugation.
(§2) After extensive washing, cells were resuspended (1.0 × 10^6 cells/mL) in RPMI-1640 with 10% FBS and incubated overnight. For cytotoxicity evaluations in proliferating PBL cultures, non-adherent cells were resuspended at 5 × 10^5 cells/mL in growth medium, containing 2.5 μg/mL PHA (Irvine Scientific). Different concentrations of the test compounds were added, and viability was determined 72 h later by the MTT test. For cytotoxicity evaluations in resting PBL cultures, non-adherent cells were resuspended (5 × 10^5 cells/mL) and treated for 72 h with the test compounds, as described above.

For series [2], the system named is HeLa. Put plainly: Antiproliferative MTT assay, HeLa. The note with it: Homo sapiens, HeLa, 72 h, mean ± SE. The class given is cell-based, human. The procedure: (§3) Human T-cell leukemia (Jurkat) and human B-cell leukemia (SEM and RS4;11) cells were grown in RPMI-1640 medium (Gibco, Milano, Italy). Breast adenocarcinoma (MCF-7), human cervix carcinoma (HeLa), human lung adenocarcinoma (A549) and human colon adenocarcinoma (HT-29) cells were grown in DMEM medium (Gibco, Milano, Italy), all supplemented with 115 units/mL penicillin G (Gibco, Milano, Italy), 115 μg/mL streptomycin (Invitrogen, Milano, Italy), and 10% fetal bovine serum (FBS; Invitrogen, Milano, Italy). Stock solutions (10 mM) of the different compounds were obtained by dissolving them in DMSO. Individual wells of a 96-well tissue culture microtiter plate were inoculated with 100 μL of complete medium containing 8 × 10^3 cells. The plates were incubated at 37 °C in a humidified 5% CO2 incubator for 18 h prior to the experiments. After medium removal, 100 μL of fresh medium containing the test compound at different concentrations was added to each well in triplicate and incubated at 37 °C for 72 h. The percentage of DMSO in the medium never exceeded 0.25%. This was also the maximum DMSO concentration in all cell-based assays described below.
For orientation: Tetrazolium dyes change colour on reduction, which living cells bring about.

Series [3] concerns BL6-B16 murine melanoma cells. As to the kind of experiment: Mouse allograft tumor model (BL6-B16 melanoma). The series is classed as in vivo. The text has this:
Animal experiments were approved by our local animal ethics committee (OPBA, Organismo Preposto al Benessere degli Animali, Università degli Studi di Brescia, Italy) and were executed in accordance with national guidelines and regulations. Procedures involving animals and their care conformed with institutional guidelines that comply with national and international laws and policies (EEC Council Directive 86/609, OJ L 358, 12 December 1987) and with “ARRIVE” guidelines (Animals in Research Reporting In Vivo Experiments). Six week old C57BL/6 mice (Charles River, Calco) were injected subcutaneously into the dorsolateral flank with 2.5x10^5 BL6-B16 murine melanoma cells in 200 μL of PBS. When tumors were palpable, animals were treated intraperitoneally every other day with different doses of test compounds dissolved in 50 μL of DMSO. Tumors were measured in two dimensions, and tumor volume was calculated according to the formula V = (D × d^2)/2, where D and d are the major and minor perpendicular tumor diameters, respectively.

The subject of series [4] is B16 murine melanoma cells. Put plainly: MTT assay on B16 murine melanoma cells. The class given is cell-based. The note with it: Mus musculus.
Series [5] concerns HT-29. As to the kind of experiment: Antiproliferative MTT assay, HT-29. The series is classed as cell-based, human. The conditions noted are these: Homo sapiens, HT-29, 72 h, mean ± SE. The procedure: as §3
The subject of series [6] is HeLa cells. Put plainly: Annexin-V/PI apoptosis assay, HeLa. The note with it: 60 nM, 24 h. The class given is cell-based, human. The procedure: (§4) Cell death was determined by flow cytometry of cells double stained with annexin V/FITC and PI. The Coulter Cytomics FC500 (Beckman Coulter) was used to measure the surface exposure of PS on apoptotic cells according to the manufacturer’s instructions (Annexin-V Fluos, Roche Diagnostics).

Series [7] concerns HUVECs. Put plainly: HUVEC scratch wound motility assay. The class given is cell-based, human. The note with it: 100 nM, 6 h and 24 h. The procedure: (§5) HUVECs were prepared from human umbilical cord veins, as previously described. The adherent cells were maintained in M200 medium supplemented with LSGS (Low Serum Growth Supplement), containing FBS, hydrocortisone, hEGF, bFGF, heparin, gentamycin/amphotericin (Life Technologies, Monza, Italy). Once confluent, the cells were detached by a trypsin–EDTA solution and used in experiments from the first to sixth passages.
The motility assay for HUVECs was based on “scratch” wounding of a confluent monolayer. Briefly, HUVECs (1x10^5) were seeded onto 6-well plates coated with 0.1% collagen type I (BD Biosciences, Italy) in complete medium until a confluent monolayer was formed. The cells were wounded using a pipette tip, and wells were washed with PBS to remove undetached cells. Then, the cells were treated with the test compounds, and, at different times from the scratch, the cells were photographed under a light microscope. At all indicated time points, the wound width was measured in four areas and compared with the initial width.

Series [8] has as its system MCF-7. As to the kind of experiment: Antiproliferative MTT assay, MCF-7. The series is classed as cell-based, human. The conditions noted are these: Homo sapiens, MCF7, 72 h, mean ± SE. The procedure: as §3
In series [9] the test system is HUVECs. Put plainly: Disruption of capillary-like tubes on Matrigel. The class given is cell-based, human. The conditions noted are these: 100 nM (highest concentration), 24 h. As for the experimental part: as §5
Matrigel matrix (Basement Membrane Matrix, BD Biosciences, Italy) was kept at 4 °C for 3 h, when 230 μL of Matrigel solution was added to each well of a 24-well plate. After gelling at 37 °C for 30 min, gels were overlaid with 500 μL of medium containing 6 × 10^4 HUVECs. The cells were incubated over Matrigel for 6 h to allow capillary tubes to form. Different concentrations of test compound were added in the cultures and incubated for different times, and the disappearance of existing vasculature was monitored and photographed (five fields for each well: the four quadrants and the center) at a 10x magnification. Phase contrast images were recorded using a digital camera and saved as TIFF files. Image analysis was carried out using ImageJ image analysis software, and dimensional (percent area covered by HUVECs and total length of HUVECs network per field) and topological parameters (number of meshes and branching points per field) were determined. Values were expressed as percent change from control cultures grown with complete medium.

The subject of series [10] is HUVECs. As to the kind of experiment: Cytotoxicity in HUVECs. The class given is cell-based. The note with it: Homo sapiens, HUVEC; primary HUVECs. As for the experimental part: as §5
For series [11], the system named is RS 4;11. As to the kind of experiment: Antiproliferative MTT assay, RS 4;11. The conditions noted are these: Homo sapiens, RS4-11, 72 h, mean ± SE. The series is classed as cell-based, human. The procedure: as §3
In series [12] the test system is PBL not stimulated with PHA. As to the kind of experiment: Cytotoxicity in resting peripheral blood lymphocytes. The series is classed as cell-based. The conditions noted are these: Homo sapiens, Lymphocyte, 72 h, MTT, mean ± SEM, read-out: IC50 PBLresting. The procedure:
as §1, §2

In series [13] the test system is Jurkat cells. Put plainly: Annexin-V/PI apoptosis assay, Jurkat. The series is classed as cell-based, human. The note with it: 60 nM, 24 h. The procedure: as §4
The subject of series [14] is panel of seven human tumor cell lines. As to the kind of experiment: Antiproliferative activity, range over panel of seven human tumor cell lines. The series is classed as cell-based. The note with it: read-out: IC50 values, range over the cell line panel. As for the experimental part: as §3

In the case of `CCOc1ccc(-c2oc(C)nc2-c2cc(OC)c(OC)c(OC)c2)cc1` [Compound 4i, 4-(3,4,5-Trimethoxyphenyl)-5-(4-ethoxyphenyl)-2-methyloxazole], the IC50 was 18300 ± 1500 nM in [1]; 0.9 ± 0.3 nM in [2]; 15.6 ± 1.9 nM in [4]; 20.2 ± 8.8 nM in series [5]; 4.5 ± 1.8 nM in [8]; > 100000 nM in series [10]. Further, the half-maximal inhibitory concentration (IC50) in series [11] is 2.1 ± 0.2 nM; in series [12], 14900 ± 3500 nM; in [14] (Homo sapiens), 0.5 to 20 nM; in series [14], 0.5 to 20.2 nM. The “reduction in tumor mass” value is listed as 34.9% in series [3] (3.0 mg/kg i.p. on days 9, 11 and 14); 52.5% in series [3] (7.5 mg/kg i.p. on days 9, 11 and 14). In addition, in [3] (highest dose (7.5 mg/kg i.p.)), the “signs of toxicity in mice” value is listed as “did not show any sign of toxicity”. In series [3] (highest dose (7.5 mg/kg i.p.), data not shown), the animal body weight result is “did not cause a decrease in animal body weight”. Moreover, the “apoptotic cells (annexin-V)” value in [6] came to 70%; in series [13], 40%. The “HUVEC cell migration (wound healing)” value in series [7] was “significantly reduced”. Also, the “antivascular effect on Matrigel preformed tubular structures” value in series [9] was “did not show a significant antivascular effect”.

In general, IC50 refers to the concentration needed to halve the response being measured.
